Measured values: PMC10829846 (Emerging Microbes & Infections, 2023)

Experiments:
EC1864 = experiment: Sepsis model; format: in vivo, ICR mice; settings: compound oral + meropenem i.v., all 10 mg/kg once daily
[1] = test system: NDM-1 positive bacteria EC1864; experiment: Checkerboard assay with meropenem; format: cell-based, Escherichia coli; settings: meropenem alone […]
NDM-1 [2] = biological target: T1, NDM-1 (Klebsiella pneumoniae, UniProt C7C422); experiment: Inhibition of NDM-1 hydrolytic activity, enzymatic assay with meropenem; format: biochemical; settings: for Restoration of NDM-1 activity by zinc supplementation: 1-fold or 10-fold concentration of Zn^2+; for Inhibitory mode: Lineweaver-Burk plot
NDM-1 [3] = biological target: T1, NDM-1; settings: cited from earlier work
[4] = substrate: C[C@@H](O)[C@H]1C(=O)N2C(C(=O)O)=C(S[C@@H]3CN[C@H](C(=O)N(C)C)C3)[C@H](C)[C@H]12; experiment: purified protein, by the assay type; format: biochemical; settings: other: meropenem as substrate of recombinant NDM-1; pH 7.5

With `O=[N+]([O-])c1ccc(O)c2ncccc12` [nitroxoline, 5-nitro-8-hydroxyquinoline] the “Survival rate of sepsis mice, combination therapy with meropenem” value (EC1864) was “did not exhibit a protective effect”, the “MIC value of meropenem with sub-MIC concentration of the compound” value [1] was 8 µg/mL and the “Restoration of NDM-1 activity by zinc supplementation” value (NDM-1 [2]) was “partially or fully restored”. The Inhibitory mode (NDM-1 [2]) was “non-competitive inhibition” and the “Concentration that completely inhibited NDM-1 activity” value (NDM-1 [3]) was 30 µM.

With `O=C(O)CN(CCN(CC(=O)O)CC(=O)O)CC(=O)O` [EDTA] the “Restoration of NDM-1 activity by zinc supplementation” value (NDM-1 [2]) was “partially or fully restored” and the Inhibitory mode (NDM-1 [2]) was “non-competitive inhibition”.

B1: recombinant NDM-1 (Klebsiella pneumoniae) (protein)
chain: MHHHHHHMPGEIRPTIGQQMETGDQRFGDLVFRQLAPNVWQHTSYLDMPGFGAVASNGLIVRDGGRVLVVDTAWTDDQTAQILNWIKQEINLPVALAVVTHAHQDKMGGMDALHAAGIATYANALSNQLAPQEGMVAAQHSLTFAANGWVEPATAPNFGPLKVFYPGPGHTSDNITVGIDGTDIAFGGCLIKDSKAKSLGNLGDADTEHYAASARAFGAAFPKASMIVMSHSAPDSRAAITHTARMADKLR
Work on B1 yielded a Km [4] of 54.72 µM and a kcat [4] of 11.71 s⁻¹.
